From ChEMBL document CHEMBL1201862, “PubChem BioAssay data set” (2004)
Each block holds one molecule with its values, some of them ahead of it. Active and inactive are the calls of the source.

Columns and labels:
[1] = target: Intestinal-type alkaline phosphatase (Mus musculus, UniProt P24822); assay: PubChem AID 488874; type: functional
[2] = target: T1, Intestinal-type alkaline phosphatase (Homo sapiens, UniProt P09923); assay: human intestinal alkaline phosphatase activators, dose response, biochemical, luminescence, uHTS hits (AID 463120); type: functional
[3] = target: T1, Intestinal-type alkaline phosphatase; assay: activation of human intestinal alkaline phosphatase – biochemical, luminescent, uHTS hits, set 2, dose response (AID 488817); type: functional;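 further: potency of activators that raise enzyme activity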
[4] = target: T2, Alkaline phosphatase, tissue-nonspecific isozyme (Homo sapiens, UniProt P05186); assay: activation of tissue-nonspecific alkaline phosphatase – biochemical, TNAP isozyme, human IAP uHTS hits, selectivity assay for human IAP activator project, dose response (AID 488886); type: functional;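 further: potency of compounds raising TNAP activity as a selectivity check on IAP activators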
T2 sequence (P05186 whole entry): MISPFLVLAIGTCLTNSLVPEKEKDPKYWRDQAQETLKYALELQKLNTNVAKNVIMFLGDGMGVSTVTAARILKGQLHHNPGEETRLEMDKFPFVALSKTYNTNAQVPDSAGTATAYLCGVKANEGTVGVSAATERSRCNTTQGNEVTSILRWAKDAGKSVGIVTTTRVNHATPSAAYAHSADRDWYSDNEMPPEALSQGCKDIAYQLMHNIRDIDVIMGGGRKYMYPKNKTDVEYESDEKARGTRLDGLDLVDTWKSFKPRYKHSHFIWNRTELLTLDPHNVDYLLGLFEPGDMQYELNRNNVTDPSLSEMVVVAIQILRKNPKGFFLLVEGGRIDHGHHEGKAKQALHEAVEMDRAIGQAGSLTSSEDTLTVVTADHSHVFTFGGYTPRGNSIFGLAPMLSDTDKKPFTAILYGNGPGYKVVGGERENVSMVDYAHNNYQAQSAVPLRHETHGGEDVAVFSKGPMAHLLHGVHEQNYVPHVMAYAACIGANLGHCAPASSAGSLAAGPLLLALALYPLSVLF

Cytochrome P450 2C19 = Cytochrome P450 2C19 (Homo sapiens, UniProt P33261); assay: Cytochrome panel assay with activity outcomes. Panel member name: p450-cyp2c19 Compounds with AC50 equal or less than 10 uM are considered active; type: functional; details: read-out: AC50
Cytochrome P450 1A2 = target: T3, Cytochrome P450 1A2 (Homo sapiens, UniProt P05177);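 further: PubChem cytochrome P450 panel assay, CYP1A2 panel member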
T3 sequence (P05177 whole entry): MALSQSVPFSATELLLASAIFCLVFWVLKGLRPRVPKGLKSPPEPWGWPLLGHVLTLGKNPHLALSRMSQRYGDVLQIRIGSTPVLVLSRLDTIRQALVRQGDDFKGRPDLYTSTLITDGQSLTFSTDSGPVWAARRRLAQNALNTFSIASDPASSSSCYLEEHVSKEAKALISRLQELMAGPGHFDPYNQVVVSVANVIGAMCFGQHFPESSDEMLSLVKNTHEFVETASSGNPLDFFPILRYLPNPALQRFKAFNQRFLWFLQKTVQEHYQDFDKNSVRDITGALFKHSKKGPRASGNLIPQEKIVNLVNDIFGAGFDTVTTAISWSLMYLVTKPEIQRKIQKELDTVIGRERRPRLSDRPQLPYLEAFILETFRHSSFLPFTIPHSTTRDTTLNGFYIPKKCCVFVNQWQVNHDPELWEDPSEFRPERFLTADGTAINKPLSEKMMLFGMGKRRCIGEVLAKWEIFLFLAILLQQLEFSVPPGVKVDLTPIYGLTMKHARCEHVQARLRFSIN

Cytochrome P450 3A4 = Cytochrome P450 3A4 (Homo sapiens, UniProt P08684);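 further: CYP3A4 tested as one member of a cytochrome P450 panel screen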
[5] = target: T4, Microphthalmia-associated transcription factor (Homo sapiens, UniProt O75030); assay: reducers of TRPM1 reporter luminescence, concentration series – cell-based, SK-MEL-5, cherry-picked, set 3, MITF inhibitor project, dose response (AID 493073); type: functional;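 further: SK-MEL-5 melanoma cells with luciferase driven by the MITF target TRPM1 promoter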
T4 sequence (O75030 whole entry): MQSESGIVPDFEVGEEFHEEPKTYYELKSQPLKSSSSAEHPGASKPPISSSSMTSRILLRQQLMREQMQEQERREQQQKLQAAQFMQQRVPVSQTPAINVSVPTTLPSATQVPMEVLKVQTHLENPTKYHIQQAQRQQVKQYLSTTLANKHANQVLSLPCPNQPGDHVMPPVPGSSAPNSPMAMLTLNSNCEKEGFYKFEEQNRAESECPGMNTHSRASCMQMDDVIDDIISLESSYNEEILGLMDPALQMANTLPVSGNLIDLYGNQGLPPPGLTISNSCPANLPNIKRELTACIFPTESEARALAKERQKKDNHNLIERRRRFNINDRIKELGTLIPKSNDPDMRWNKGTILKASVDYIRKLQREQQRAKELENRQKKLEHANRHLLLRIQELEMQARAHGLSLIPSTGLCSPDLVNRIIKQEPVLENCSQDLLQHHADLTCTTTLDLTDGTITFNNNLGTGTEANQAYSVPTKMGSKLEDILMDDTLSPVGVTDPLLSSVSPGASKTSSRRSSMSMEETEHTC

A-375 = assay: MITF: Counter assay: A375 proliferation Measured in Cell-Based System Using Plate Reader - 2084-03_Inhibitor_Dose_DryPowder_Activity. [Related pubchem assays (depositor defined):AID488944]; type: functional; details: Homo sapiens
[6] = A549 cell cytotoxicity, dose response, cytotoxicity control, plate reader, cherry-pick, antagonist series (AID 743412); type: functional, cell-based
[7] = blockers of bursicon-stimulated LGR2 cAMP reporter – cell-based, HEK293, CRE-luciferase reporter, cherry pick, set 2, dose response (AID 743343); type: functional;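 further: transfected cells were stimulated with diluted bursicon conditioned medium after compound addition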
[8] = blockade of melanocortin 4 receptor signaling – cell-based, plate reader, cherry pick, counter-screen for LGR2 antagonist project, dose response (AID 743444); type: functional;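 further: transfected HEK 293 cells stimulated with alpha-MSH peptide; potency of inhibitors of the alpha-MSH evoked signal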
[9] = viability loss in HEK293 cells – cell-based, plate reader, cherry-picked samples, cytotoxicity control, dose response (AID 743446); type: functional
[10] = Trypanosoma cruzi growth suppression in host cells – NIH3T3 host cells, beta-gal luminescence, confirmation (AID 2044); type: functional, cell-based;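 further: intracellular parasites grown in NIH/3T3 mouse fibroblasts as host cells; luminescent beta-galactosidase reporter signal from transgenic T. cruzi replicating inside host cells; inhibitors lower the luminescence signal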
[11] = NIH3T3 cell viability loss – ATP luminescence, mouse fibroblasts, counter-screen, dose response (AID 2010); type: functional, cell-based;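 further: cells exposed to compound for about 90 hours before reading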
[12] = target: T5, DNA repair and recombination protein RAD54-like (Homo sapiens, UniProt Q92698); assay: RAD54 Holliday junction migration blockers – biochemical, fluorescence, cherry-picked samples, dose series, confirmation (AID 651657); type: functional
T5 sequence (Q92698 whole entry): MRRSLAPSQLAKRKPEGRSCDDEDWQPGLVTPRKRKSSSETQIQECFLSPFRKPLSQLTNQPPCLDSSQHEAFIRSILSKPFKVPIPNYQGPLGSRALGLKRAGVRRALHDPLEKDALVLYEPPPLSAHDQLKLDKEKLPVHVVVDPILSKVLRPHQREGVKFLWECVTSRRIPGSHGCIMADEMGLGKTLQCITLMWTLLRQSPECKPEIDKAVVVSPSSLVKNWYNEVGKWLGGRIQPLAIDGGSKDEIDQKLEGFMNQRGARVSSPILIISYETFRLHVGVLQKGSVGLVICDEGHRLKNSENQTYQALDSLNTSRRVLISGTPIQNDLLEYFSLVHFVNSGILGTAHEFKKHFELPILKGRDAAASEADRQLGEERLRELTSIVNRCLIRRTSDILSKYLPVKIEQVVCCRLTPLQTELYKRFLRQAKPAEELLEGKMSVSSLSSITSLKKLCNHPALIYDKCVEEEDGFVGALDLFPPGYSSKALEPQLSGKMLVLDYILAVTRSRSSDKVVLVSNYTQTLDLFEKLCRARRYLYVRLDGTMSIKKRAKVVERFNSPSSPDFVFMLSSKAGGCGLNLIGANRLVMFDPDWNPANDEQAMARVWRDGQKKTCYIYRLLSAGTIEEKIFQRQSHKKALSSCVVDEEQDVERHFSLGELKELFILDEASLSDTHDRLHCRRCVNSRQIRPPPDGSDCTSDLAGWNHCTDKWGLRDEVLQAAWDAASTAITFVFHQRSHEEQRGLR

[13] = target: T6, DNA repair protein RAD52 homolog (Homo sapiens, UniProt P43351); type: functional, biochemical
T6 sequence (P43351 whole entry): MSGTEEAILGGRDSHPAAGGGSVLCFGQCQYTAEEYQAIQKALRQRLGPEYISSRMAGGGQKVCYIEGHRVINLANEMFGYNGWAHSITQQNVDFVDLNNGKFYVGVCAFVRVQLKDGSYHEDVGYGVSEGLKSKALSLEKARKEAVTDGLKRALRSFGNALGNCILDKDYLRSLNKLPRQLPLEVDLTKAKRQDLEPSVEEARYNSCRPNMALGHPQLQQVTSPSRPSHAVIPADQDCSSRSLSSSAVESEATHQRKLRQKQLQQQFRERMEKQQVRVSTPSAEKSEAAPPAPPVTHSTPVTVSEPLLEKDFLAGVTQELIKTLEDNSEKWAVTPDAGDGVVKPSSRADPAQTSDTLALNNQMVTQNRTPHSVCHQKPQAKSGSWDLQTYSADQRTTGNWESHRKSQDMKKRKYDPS

Escherichia coli = assay: microbe, parasite or virus in culture
Jurkat = assay: SAR Analysis of small molecule inhibitors of […] specific antigen receptor-induced NF-kB activation in a Jurkat cell line using a luminescence assay - Set 3. [Related pubchem assays (depositor defined):AID435022, AID435025, AID465]; type: functional, cell-based; details: Homo sapiens
HEK293 [14] = assay: SAR Analysis of small molecule inhibitors of B-cell specific antigen receptor-induced NF-kB activation in a HEK-293T cell line using a luminescence assay - Set 2. [Related pubchem assays (depositor defined):AID435022, AID435025, AID489021]; type: functional, cell-based; details: Homo sapiens
HEK293 [15] = assay: HEK293T cell viability loss, resazurin readout – resazurin fluorescence, cytotoxicity control for NF-kB activator project, SAR follow-up (AID 493251); type: functional, cell-based; details: Homo sapiens
Beta-galactosidase = Beta-galactosidase (Escherichia coli, UniProt Q8VNN2); assay: PubChem AID 485352; type: functional
[16] = target: Type-1 angiotensin II receptor (Homo sapiens, UniProt P30556); assay: antagonism of angiotensin II type 1 receptor – cell-based, uHTS hits, selectivity assay for APJ receptor antagonist project, dose response (AID 463214); type: functional;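 further: antagonist potency against angiotensin II stimulated AT1 response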
Type-1 angiotensin II receptor, sequence (P30556 whole entry): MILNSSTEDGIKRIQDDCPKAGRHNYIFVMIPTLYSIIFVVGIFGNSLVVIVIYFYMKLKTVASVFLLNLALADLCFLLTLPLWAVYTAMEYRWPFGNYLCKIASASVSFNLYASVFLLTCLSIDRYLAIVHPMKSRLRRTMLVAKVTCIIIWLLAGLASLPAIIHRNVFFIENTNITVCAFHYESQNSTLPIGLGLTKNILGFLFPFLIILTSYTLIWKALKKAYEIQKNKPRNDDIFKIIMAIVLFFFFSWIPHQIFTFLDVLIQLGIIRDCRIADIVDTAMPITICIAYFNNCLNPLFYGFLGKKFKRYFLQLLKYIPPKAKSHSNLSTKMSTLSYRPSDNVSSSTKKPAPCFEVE

T1 sequence (P09923 whole entry): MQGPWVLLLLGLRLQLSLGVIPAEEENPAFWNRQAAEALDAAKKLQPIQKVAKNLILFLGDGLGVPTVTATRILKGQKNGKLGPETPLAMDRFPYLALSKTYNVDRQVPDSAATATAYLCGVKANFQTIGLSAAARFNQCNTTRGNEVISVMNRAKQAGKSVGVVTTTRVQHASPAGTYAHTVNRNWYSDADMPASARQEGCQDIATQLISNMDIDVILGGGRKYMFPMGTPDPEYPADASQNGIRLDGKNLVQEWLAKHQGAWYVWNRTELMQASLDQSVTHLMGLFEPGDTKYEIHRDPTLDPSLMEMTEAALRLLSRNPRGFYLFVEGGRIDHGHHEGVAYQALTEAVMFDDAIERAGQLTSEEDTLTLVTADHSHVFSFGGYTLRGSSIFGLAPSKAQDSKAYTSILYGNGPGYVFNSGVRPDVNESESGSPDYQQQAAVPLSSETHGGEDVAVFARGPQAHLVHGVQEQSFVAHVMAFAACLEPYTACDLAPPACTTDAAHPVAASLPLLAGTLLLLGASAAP
Intestinal-type alkaline phosphatase (Mus musculus, UniProt P24822), sequence (P24822 whole entry): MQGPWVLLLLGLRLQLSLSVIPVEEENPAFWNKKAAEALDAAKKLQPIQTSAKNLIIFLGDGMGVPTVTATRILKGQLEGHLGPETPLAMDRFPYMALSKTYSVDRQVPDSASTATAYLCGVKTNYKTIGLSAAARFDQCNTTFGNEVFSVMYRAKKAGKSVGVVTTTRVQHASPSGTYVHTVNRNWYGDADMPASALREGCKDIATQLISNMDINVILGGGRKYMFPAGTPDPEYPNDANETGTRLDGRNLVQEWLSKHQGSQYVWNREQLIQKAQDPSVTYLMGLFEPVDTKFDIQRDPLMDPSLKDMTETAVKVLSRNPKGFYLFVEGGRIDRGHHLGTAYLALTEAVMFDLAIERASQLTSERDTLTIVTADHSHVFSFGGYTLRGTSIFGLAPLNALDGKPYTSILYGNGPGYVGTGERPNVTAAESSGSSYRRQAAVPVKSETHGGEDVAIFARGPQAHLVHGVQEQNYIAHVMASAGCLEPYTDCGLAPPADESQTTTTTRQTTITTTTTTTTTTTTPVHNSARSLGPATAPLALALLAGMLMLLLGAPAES
Beta-galactosidase, sequence (Q8VNN2 whole entry): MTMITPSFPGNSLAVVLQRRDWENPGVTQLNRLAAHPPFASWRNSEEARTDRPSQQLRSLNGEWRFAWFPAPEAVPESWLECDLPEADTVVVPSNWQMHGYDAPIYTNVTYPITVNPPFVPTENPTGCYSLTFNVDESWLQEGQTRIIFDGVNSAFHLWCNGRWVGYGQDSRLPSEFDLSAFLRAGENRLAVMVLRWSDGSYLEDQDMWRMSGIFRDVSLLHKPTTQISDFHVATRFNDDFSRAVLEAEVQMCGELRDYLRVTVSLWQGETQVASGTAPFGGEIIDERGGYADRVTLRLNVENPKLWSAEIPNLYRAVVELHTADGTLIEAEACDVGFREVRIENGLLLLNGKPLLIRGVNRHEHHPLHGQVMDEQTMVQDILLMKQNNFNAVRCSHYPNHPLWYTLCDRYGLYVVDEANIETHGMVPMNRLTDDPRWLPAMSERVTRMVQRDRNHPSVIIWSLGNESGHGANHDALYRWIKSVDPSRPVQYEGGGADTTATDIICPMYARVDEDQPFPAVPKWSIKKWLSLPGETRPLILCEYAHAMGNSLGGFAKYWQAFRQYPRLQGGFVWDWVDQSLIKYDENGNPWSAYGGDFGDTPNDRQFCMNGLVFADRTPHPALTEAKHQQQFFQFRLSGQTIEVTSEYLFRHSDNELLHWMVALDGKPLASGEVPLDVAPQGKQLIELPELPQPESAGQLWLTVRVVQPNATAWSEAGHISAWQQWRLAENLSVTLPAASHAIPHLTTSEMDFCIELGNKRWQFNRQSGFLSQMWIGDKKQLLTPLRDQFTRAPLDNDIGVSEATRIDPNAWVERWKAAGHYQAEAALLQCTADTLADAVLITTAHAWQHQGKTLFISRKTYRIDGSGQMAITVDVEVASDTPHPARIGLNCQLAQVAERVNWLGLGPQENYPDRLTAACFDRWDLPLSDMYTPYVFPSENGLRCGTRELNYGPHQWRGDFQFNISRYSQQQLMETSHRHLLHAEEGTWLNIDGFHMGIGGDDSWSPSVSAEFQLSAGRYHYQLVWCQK
Cytochrome P450 3A4, sequence (P08684 whole entry): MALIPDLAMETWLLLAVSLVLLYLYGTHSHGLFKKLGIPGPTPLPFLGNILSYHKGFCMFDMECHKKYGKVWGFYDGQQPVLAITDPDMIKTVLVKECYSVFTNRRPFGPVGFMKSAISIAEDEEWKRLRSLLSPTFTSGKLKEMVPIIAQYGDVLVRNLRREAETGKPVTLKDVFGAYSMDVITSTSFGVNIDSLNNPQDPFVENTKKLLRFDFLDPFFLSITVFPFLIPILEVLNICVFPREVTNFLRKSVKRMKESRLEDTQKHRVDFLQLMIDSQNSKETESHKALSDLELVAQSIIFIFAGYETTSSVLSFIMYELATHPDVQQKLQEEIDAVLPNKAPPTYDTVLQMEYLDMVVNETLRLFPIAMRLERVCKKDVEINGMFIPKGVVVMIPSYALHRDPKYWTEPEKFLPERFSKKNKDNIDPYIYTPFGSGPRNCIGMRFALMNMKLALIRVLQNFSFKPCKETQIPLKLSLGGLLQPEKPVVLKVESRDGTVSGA
Cytochrome P450 2C19, sequence (P33261 whole entry): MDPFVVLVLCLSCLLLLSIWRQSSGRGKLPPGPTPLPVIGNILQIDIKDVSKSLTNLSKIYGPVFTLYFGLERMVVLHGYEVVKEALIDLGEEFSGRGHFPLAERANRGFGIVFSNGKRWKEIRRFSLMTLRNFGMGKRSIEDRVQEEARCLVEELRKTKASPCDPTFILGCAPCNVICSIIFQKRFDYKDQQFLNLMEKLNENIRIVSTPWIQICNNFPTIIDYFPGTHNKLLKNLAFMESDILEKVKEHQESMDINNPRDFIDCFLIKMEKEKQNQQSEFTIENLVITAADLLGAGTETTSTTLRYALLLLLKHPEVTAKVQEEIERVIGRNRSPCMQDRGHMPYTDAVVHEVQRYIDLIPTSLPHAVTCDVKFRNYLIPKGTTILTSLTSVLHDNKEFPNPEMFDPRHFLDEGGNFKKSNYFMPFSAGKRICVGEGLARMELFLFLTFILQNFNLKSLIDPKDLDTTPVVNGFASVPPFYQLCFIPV

IC50 [1]: 60.3 µM (active) | EC50 [2]: 18.8 µM (active) | EC50 [3]: 21.8 µM (active) | EC50 [4]: 21.1 µM (active)
SMILES: CC(C)Oc1ccc(CCC(=O)NNC(=S)NCc2ccccc2)cc1

AC50 (Cytochrome P450 2C19): 0.0355 µM (inconclusive) | AC50 (Cytochrome P450 1A2): 25.1 µM (inconclusive) | AC50 (Cytochrome P450 3A4): inconclusive
SMILES: O=C(c1ccccc1)c1c[nH]c(C(=O)NCCCN2CCOCC2)c1

SMILES: CCCNC(=O)COC(=O)c1ccccc1C(=O)c1ccc(Cl)c([N+](=O)[O-])c1
AC50 [5]: 8.34 µM (active) | AC50 (A-375): 34.3 µM (active) | AC50 [6]: 7.32 µM (active) | AC50 [7]: 8.85 µM (active) | AC50 [8]: 10.6 µM (active) | AC50 [9]: 10.7 µM (active)

SMILES: CCCCN(CC)CCN=C(S)Nc1ccc2nc(N3CCN(C)CC3)cc(C)c2c1
EC50 [10]: 0.34 µM (active) | EC50 [11]: 4.9 µM (active) | AC50 [12]: 22.5 µM (active) | AC50 [13]: 5.01 µM (active) | AC50 (Escherichia coli): 56 µM (active)

SMILES: CCOc1ccc(-c2nc(CSCC(=O)NC(C)CC)c(C)o2)cc1 (stereo not drawn)
IC50 (Jurkat): > 80 µM (inactive) | IC50 (HEK293 [14]): 35.7 µM (inactive) | IC50 (HEK293 [15]): 74.6 µM (inactive)

EC50 (Beta-galactosidase): > 40 µM (inactive) | IC50 [16]: > 40 µM (not active)
SMILES: CN(C)CC(=O)c1ccc(-c2ccccc2)cc1
